{"source": "patent US20040086500A1", "about": "“Rh116 polypeptides and its fragments and polynucleotides encoding said polypeptides and therapeutic uses” (priority 2000, published 2004)", "key": {"[1]": {"tested_on": "PBMCs of CD8 lymphocyte-depleted patients", "assay_type": "cell-based, human", "description": "Specifically, MB inhibits by 70 to 100% the level of HIV viral protein p24 in the culture supernatants. This effect correlates with the level of expression of viral messenger RNAs (nonspliced and single-spliced)."}, "RH116 messenger RNA": {"tested_on": "RH116 messenger RNA", "assay": "Semiquantitative RT-PCR of RH116 mRNA in CD8-depleted PBMCs of HIV-1 infected patients", "assay_type": "cell-based, human", "settings": "for maximum mean inhibition of expression of the RH116 messenger RNA: murabutide 10 μg/ml", "description": "Venous blood is collected from patients sero-positive for HIV-1 and peripheral blood mononuclear cells (PBMCs) are isolated by centrifugation on Ficoll-Hypaque (AMERSHAM PHARMACIA BIOTECH, Uppsala, Sweden). The cells are washed carefully in order to remove the platelets and are depleted of CD8+ cells using electro-magnetic beads covered with an anti-CD8 antibody (DYNAL, Oslo, Norway). The depleted PBMCs obtained using the manufacturer's protocol contain less than 3% of CD8+ cells after analysis by flow cytometry. […]. Next, the PBMCs are cultured and then recovered in the presence or absence of murabutide (N-acetylmuramyl-L-alanyl-D-glutamine-n-butyl ester) (provided by ISTAC SA, Lille, France) (10 μg/ml) and interleukin 2 (IL-2) (10 μg/ml) for 6 or 24 hours.\n(§1) The total cellular RNA extracted using the RNA plus kit (Q-BIOgene, Illkirch, France) is pretreated with DNAse I. Synthesis of the first strand on the polyA+ RNA was primed with a p(dT)15 primer (BOERHINGER MANNHEIM, ROCHE DIAGNOSTICS, France) and carried out with the reverse transcriptase derived from the Moloney murine leukemia virus (M-MLV) (PROMEGA, Madison, Calif., USA) (1 hour at 37° C., 3 min at 92° C.). The resulting cDNA is then subjected to 25 to 35 repeat amplification cycles with the AmpliTaq Gold polymerase (APPLIED BIOSYSTEMS). PCR amplification of the GAPDH sequences is carried out in order to obtain an internal control. […]\nPBMCs of patients (P) infected with HIV or of control healthy donors (C) are isolated, depleted of CD8+ lymphocytes (Dynabeads, Dynal) and stimulated with phytohemagglutinin, PHA (5 μg/ml), for 3 days. […] The number of amplification cycles was determined beforehand (35 cycles). The amplified fragments are visualized on an agarose gel (1%) in the presence of ethidium bromide, and then quantified using the Imager master program (Pharmacia). […]"}, "RH116 gene": {"tested_on": "RH116 gene", "assay": "Semiquantitative RT-PCR of RH116 gene expression in PBMCs of healthy donors", "assay_type": "cell-based, human", "settings": "10 healthy controls, in particular after 6 hours, 10 μg/ml", "method": "as §1\nPBMCs of patients (P) infected with HIV or of control healthy donors (C) are isolated, depleted of CD8+ lymphocytes (Dynabeads, Dynal) and stimulated with phytohemagglutinin, PHA (5 μg/ml), for 3 days. […] The number of amplification cycles was determined beforehand (35 cycles). The amplified fragments are visualized on an agarose gel (1%) in the presence of ethidium bromide, and then quantified using the Imager master program (Pharmacia). […] The results are then expressed as % increase or % inhibition of expression of the gene compared with the untreated cells. […]"}, "[2]": {"tested_on": "human immunodeficiency virus (HIV)", "settings": "macrophages, dendritic cells, PBMCs of infected patients; cited from earlier work"}, "[3]": {"settings": "in vivo; cited from earlier work"}}, "note": "Entries after “also recorded” stand apart in the source; their conditions may differ."}
{"substance": "N-acetylmuramyl-L-alanyl-D-glutamine-n-butyl ester [murabutide]", "values": [{"measurement": "number of live cells (lack of toxicity)", "setting": "[1]", "result": "remain unchanged"}, {"measurement": "expression of the RH116 gene compared with untreated cells", "setting": "RH116 messenger RNA; 12 patients, 6 or 24 h, 10 μg/ml", "result": "significant inhibition"}, {"measurement": "maximum mean inhibition of expression of the RH116 messenger RNA", "setting": "RH116 messenger RNA; 6 hours, patient No. 5", "result": 90, "unit": "%"}, {"measurement": "maximum mean inhibition of expression of the RH116 messenger RNA", "setting": "RH116 messenger RNA; 24 hours, patient No. 3", "result": 57, "unit": "%"}, {"measurement": "expression of the RH116 gene compared with untreated cells", "setting": "RH116 gene", "result": "increases the level of expression; also recorded: very significant increase"}, {"measurement": "HIV replication", "setting": "[2]", "result": "inhibits"}, {"measurement": "clinical tolerance", "setting": "[3]", "result": "good clinical tolerance"}, {"measurement": "inflammatory reactions", "setting": "[3]", "result": "does not induce inflammatory reactions"}, {"measurement": "pyrogenicity", "setting": "[3]", "result": "not pyrogenic"}, {"measurement": "toxicity in clinical studies", "setting": "[3]", "result": "has not shown severe toxicity"}]}
